Results published in US20110086834A1, “ALKYNYL ALCOHOLS AS KINASE INHIBITORS” (AMGEN INC., priority 2008, published 2011).

biological target: T1, NIK (Homo sapiens, UniProt Q99558); assay: homogenous time resolved fluorescence (HTRF) assay for NIK Ki measurement; type: biochemical; conditions: truncated NIK (catalytic domain only), autophosphorylation; 10 nM enzyme; 20, 100, 200 or 500 μM ATP; room temperature, 2 hours; read-out: Ki activity in the homogenous time resolved fluorescence (HTRF) assay for NIK
T1 construct: Both assays utilize a truncated form of NIK containing only the catalytic domain; made in house; host or cells: baculovirus expression system (insect cells implied)
T1 sequence (Q99558 400-655 limits assumed): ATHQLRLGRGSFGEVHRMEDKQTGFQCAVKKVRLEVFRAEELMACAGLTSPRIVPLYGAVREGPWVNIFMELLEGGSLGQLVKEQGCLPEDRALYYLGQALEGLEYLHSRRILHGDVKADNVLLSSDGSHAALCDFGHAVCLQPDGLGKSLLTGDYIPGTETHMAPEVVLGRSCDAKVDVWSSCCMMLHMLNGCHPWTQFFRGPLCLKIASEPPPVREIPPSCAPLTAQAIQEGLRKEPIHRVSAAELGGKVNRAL

| Ki | SMILES |
| --- | --- |
| < 1000 nM | CC(O)(C#Cc1ccc2c(c1)N(c1ccnc(N)n1)CC2)c1cccs1 (centres unmarked) [Example 273, 4-(1-(2-Amino-4-pyrimidinyl)-2,3-dihydro-1H-indol-6-yl)-2-(2-thienyl)-3-butyn-2-ol] |
| < 1000 nM | CC(O)(C#Cc1ccc2c(c1)N(c1ccnc(N)n1)CC2)c1ccsc1 (centres unmarked) [Example 274, 4-(1-(2-Amino-4-pyrimidinyl)-2,3-dihydro-1H-indol-6-yl)-2-(3-thienyl)-3-butyn-2-ol] |
| < 1000 nM | Cc1ccc(C(C)(O)C#Cc2ccc3c(c2)N(c2ccnc(N)n2)CC3)o1 (centres unmarked) [Example 275, 4-(1-(2-Amino-4-pyrimidinyl)-2,3-dihydro-1H-indol-6-yl)-2-(5-methyl-2-furanyl)-3-Butyn-2-ol] |
| < 1000 nM | CC(O)(C#Cc1ccc2c(c1)N(c1ccnc(N)n1)CC2)c1nccs1 (centres unmarked) [Example 276, 4-(1-(2-Amino-4-pyrimidinyl)-2,3-dihydro-1H-indol-6-yl)-2-(1,3-thiazol-2-yl)-3-butyn-2-ol] |
| < 1000 nM | Cc1csc(C(C)(O)C#Cc2ccc3c(c2)N(c2ccnc(N)n2)CC3)c1 (centres unmarked) [Example 277, 4-(1-(2-amino-4-pyrimidinyl)-2,3-dihydro-1H-indol-6-yl)-2-(4-methyl-2-thienyl)-3-butyn-2-ol] |
| < 1000 nM | Cc1ccsc1C(C)(O)C#Cc1ccc2c(c1)N(c1ccnc(N)n1)CC2 (centres unmarked) [Example 278, 4-(1-(2-Amino-4-pyrimidinyl)-2,3-dihydro-1H-indol-6-yl)-2-(3-methyl-2-thienyl)-3-butyn-2-ol] |
| 1000 to 30000 nM | Cc1cc(C(C)(O)C#Cc2ccc3c(c2)N(c2ccnc(N)n2)CC3)c(C)o1 (centres unmarked) [Example 279, 4-(1-(2-Amino-4-pyrimidinyl)-2,3-dihydro-1H-indol-6-yl)-2-(2,5-dimethyl-3-furanyl)-3-Butyn-2-ol] |
| < 1000 nM | Cc1ccc(C(C)(O)C#Cc2ccc3c(c2)N(c2ccnc(N)n2)CC3)s1 (centres unmarked) [Example 280, 4-(1-(2-Amino-4-pyrimidinyl)-2,3-dihydro-1H-indol-6-yl)-2-(5-methyl-2-thienyl)-3-butyn-2-ol] |
| < 1000 nM | CC(O)(C#Cc1ccc2c(c1)N(c1ccnc(N)n1)CC2)c1ccc(Cl)s1 (centres unmarked) [Example 281, 4-(1-(2-Amino-4-pyrimidinyl)-2,3-dihydro-1H-indol-6-yl)-2-(5-chloro-2-thienyl)-3-butyn-2-ol] |
| 1000 to 30000 nM | Cc1nc(C)c(C(C)(O)C#Cc2ccc3c(c2)N(c2ccnc(N)n2)CC3)s1 (centres unmarked) [Example 283, 4-(1-(2-Amino-4-pyrimidinyl)-2,3-dihydro-1H-indol-6-yl)-2-(2,4-dimethyl-1,3-thiazol-5-yl)-3-butyn-2-ol] |
| < 1000 nM | CC(O)(C#Cc1ccc2c(c1)N(c1ccnc(N)n1)CC2)c1sccc1Cl (centres unmarked) [Example 284, 4-(1-(2-Amino-4-pyrimidinyl)-2,3-dihydro-1H-indol-6-yl)-2-(3-chloro-2-thienyl)-3-butyn-2-ol] |
| 1000 to 30000 nM | Cc1nc(C(C)(O)C#Cc2ccc3c(c2)N(c2ccnc(N)n2)CC3)sc1C (centres unmarked) [Example 285, 4-(1-(2-Amino-4-pyrimidinyl)-2,3-dihydro-1H-indol-6-yl)-2-(4,5-dimethyl-1,3-thiazol-2-yl)-3-Butyn-2-ol] |
| 1000 to 30000 nM | Cc1csc(C(C)(O)C#Cc2ccc3c(c2)N(c2ccnc(N)n2)CC3)n1 (centres unmarked) [Example 287, 4-(1-(2-Amino-4-pyrimidinyl)-2,3-dihydro-1H-indol-6-yl)-2-(4-methyl-1,3-thiazol-2-yl)-3-Butyn-2-ol] |
| < 1000 nM | Cc1nc(C(C)(O)C#Cc2ccc3c(c2)N(c2ccnc(N)n2)CC3)cs1 (centres unmarked) [Example 288, 4-(1-(2-Amino-4-pyrimidinyl)-2,3-dihydro-1H-indol-6-yl)-2-(2-methyl-1,3-thiazol-4-yl)-3-butyn-2-ol] |
| < 1000 nM | Cc1cnc(C(C)(O)C#Cc2ccc3c(c2)N(c2ccnc(N)n2)CC3)s1 (centres unmarked) [Example 289, 4-(1-(2-Amino-4-pyrimidinyl)-2,3-dihydro-1H-indol-6-yl)-2-(5-methyl-1,3-thiazol-2-yl)-3-Butyn-2-ol] |
| < 1000 nM | CC(O)(C#Cc1ccc2c(c1)N(c1ccnc(N)n1)CC2)c1cccnc1 (centres unmarked) [Example 290, 4-(1-(2-Amino-4-pyrimidinyl)-2,3-dihydro-1H-indol-6-yl)-2-(3-pyridinyl)-3-butyn-2-ol] |
| < 1000 nM | CC(O)(C#Cc1ccc2c(c1)N(c1ccnc(N)n1)CC2)c1ncco1 (centres unmarked) [Example 291, 4-(1-(2-amino-4-pyrimidinyl)-2,3-dihydro-1H-indol-6-yl)-2-(1,3-oxazol-2-yl)-3-butyn-2-ol] |
| < 1000 nM | CC(O)(C#Cc1ccc2ncc(-c3ccnc(N)n3)n2c1)c1nccs1 (centres unmarked) [Example 292, 4-(3-(2-Amino-4-pyrimidinyl)imidazo[1,2-a]pyridin-6-yl)-2-(1,3-thiazol-2-yl)-3-butyn-2-ol] |
| < 1000 nM | CC(O)(C#Cc1ccc2c(c1)N(c1ccnc(N)n1)CC2)C1CCCC1 (centres unmarked) [Example 293, 4-(1-(2-Amino-4-pyrimidinyl)-2,3-dihydro-1H-indol-6-yl)-2-cyclopentyl-3-butyn-2-ol] |

| Ki | SMILES |
| --- | --- |
| < 1000 nM | C[C@@](O)(C#Cc1ccc2c(c1)N(c1ccnc(N)n1)CC2)c1nccs1 [Example 294, (2R)-4-(1-(2-amino-4-pyrimidinyl)-2,3-dihydro-1H-indol-6-yl)-2-(1,3-thiazol-2-yl)-3-Butyn-2-ol] |
| < 1000 nM | Cc1[nH]c2ccc(C#CC(C)(O)c3nccs3)cc2c1-c1ccncc1 (centres unmarked) [Example 295, 4-(2-Methyl-3-(4-pyridinyl)-1H-indol-5-yl)-2-(1,3-thiazol-2-yl)-3-butyn-2-ol] |
| < 1000 nM | C[C@@](O)(C#Cc1ccc2ncc(-c3nc(N)ncc3Cl)n2c1)c1nccs1 [Example 296, (2R)-4-(3-(2-amino-5-chloro-4-pyrimidinyl)imidazo[1,2-a]pyridin-6-yl)-2-(1,3-thiazol-2-yl)-3-butyn-2-ol] |
| < 1000 nM | C[C@](O)(C#Cc1ccc2c(c1)N(c1ccnc(N)n1)CC2)c1nccs1 [Example 297, (2S)-4-(1-(2-amino-4-pyrimidinyl)-2,3-dihydro-1H-indol-6-yl)-2-(1,3-thiazol-2-yl)-3-butyn-2-ol] |
| < 1000 nM | Nc1ncc(Cl)c(-c2cnc3ccc(C#CC4(O)CCCC4)cn23)n1 [Example 298, 1-((3-(2-amino-5-chloro-4-pyrimidinyl)imidazo[1,2-a]pyridin-6-yl)ethynyl)-cyclopentanol] |
| < 1000 nM | CC(O)(C#Cc1ccc2ccn(-c3ccncc3)c2c1)c1nccs1 (centres unmarked) [Example 299, 4-(1-(4-Pyridinyl)-1H-indol-6-yl)-2-(1,3-thiazol-2-yl)-3-butyn-2-ol] |
| < 1000 nM | Cc1cnc(C(C)(O)C#Cc2ccc3ncc(-c4nc(N)ncc4Cl)n3c2)s1 (centres unmarked) [Example 300, 4-(3-(2-Amino-5-chloro-4-pyrimidinyl)imidazo[1,2-a]pyridin-6-yl)-2-(5-methyl-1,3-thiazol-2-yl)-3-butyn-2-ol] |
| < 1000 nM | Cc1cnc(C(C)(O)C#Cc2ccc3c(c2)N(c2nc(N)ncc2Cl)CC32CN(C)C2)s1 (centres unmarked) [Example 301, 4-(1′-(2-Amino-5-chloro-4-pyrimidinyl)-1-methyl-1′,2′-dihydrospiro[azetidine-3,3′-indol]-6′-yl)-2-(5-methyl-1,3-thiazol-2-yl)-3-butyn-2-ol] |
| < 1000 nM | CC(O)(C#Cc1ccc2ncc(-c3ccncn3)n2c1)c1nccs1 (centres unmarked) [Example 302, 4-(3-(4-pyrimidinyl)imidazo[1,2-a]pyridin-6-yl)-2-(1,3-thiazol-2-yl)-3-butyn-2-ol] |
| < 1000 nM | Cc1cnc(C(C)(O)C#Cc2ccc3c(c2)N(c2nc(N)ncc2Cl)CC3(C)C)s1 (centres unmarked) [Example 303, 4-(1-(2-Amino-5-chloro-4-pyrimidinyl)-3,3-dimethyl-2,3-dihydro-1H-indol-6-yl)-2-(5-methyl-1,3-thiazol-2-yl)-3-butyn-2-ol] |
| < 1000 nM | CC(O)(C#Cc1ccc2c(c1)N(c1nc(N)ncc1Cl)CC2(C)C)c1ccccn1 (centres unmarked) [Example 304, 4-(1-(2-Amino-5-chloro-4-pyrimidinyl)-3,3-dimethyl-2,3-dihydro-1H-indol-6-yl)-2-(2-pyridinyl)-3-Butyn-2-ol] |
| < 1000 nM | CC(O)(C#Cc1ccc2c(c1)N(c1nc(N)ncc1Cl)CC2(C)C)c1ncco1 (centres unmarked) [Example 305, 4-(1-(2-Amino-5-chloro-4-pyrimidinyl)-3,3-dimethyl-2,3-dihydro-1H-indol-6-yl)-2-(1,3-oxazol-2-yl)-3-Butyn-2-ol] |
| < 1000 nM | CC1(C)CN(c2ccncc2)c2cc(C#C[C@@](C)(O)c3nccs3)ccc21 [Example 306, (2R)-4-(3,3-dimethyl-1-(4-pyridinyl)-2,3-dihydro-1H-indol-6-yl)-2-(1,3-thiazol-2-yl)-3-Butyn-2-ol] |
| < 1000 nM | CC(O)(C#Cc1ccc2c(c1)N(c1ccncc1)CC2(C)C)c1ncco1 (centres unmarked) [Example 307, 4-(3,3-Dimethyl-1-(4-pyridinyl)-2,3-dihydro-1H-indol-6-yl)-2-(1,3-oxazol-2-yl)-3-butyn-2-ol] |
| < 1000 nM | CC(O)(C#Cc1ccc2c(c1)N(c1nc(N)ncc1Cl)CC2)c1ccccn1 (centres unmarked) [Example 308, 4-(1-(2-Amino-5-chloro-4-pyrimidinyl)-2,3-dihydro-1H-indol-6-yl)-2-(2-pyridinyl)-3-butyn-2-ol] |
| < 1000 nM | CC(O)(C#Cc1ccc2ncc(-c3nc(N)ncc3Cl)n2c1)c1ncco1 (centres unmarked) [Example 309, 4-(3-(2-Amino-5-chloro-4-pyrimidinyl)imidazo[1,2-a]pyridin-6-yl)-2-(1,3-oxazol-2-yl)-3-Butyn-2-ol] |
| < 1000 nM | CC(O)(C#Cc1ccc2c(c1)N(c1ccncc1)CC2(C)C)c1ccccn1 (centres unmarked) [Example 310, 4-(3,3-Dimethyl-1-(4-pyridinyl)-2,3-dihydro-1H-indol-6-yl)-2-(2-pyridinyl)-3-butyn-2-ol] |
| < 1000 nM | Cc1cnc(C(C)(O)C#Cc2ccc3c(c2)N(c2ccncc2)CC3(C)C)s1 (centres unmarked) [Example 311, 4-(3,3-Dimethyl-1-(4-pyridinyl)-2,3-dihydro-1H-indol-6-yl)-2-(5-methyl-1,3-thiazol-2-yl)-3-butyn-2-ol] |

| SMILES | Ki |
| --- | --- |
| CN1CCC2(CC1)CN(c1nc(N)ncc1Cl)c1cc(C#CC(C)(O)c3nccs3)ccc12 (centres unmarked) [Example 282, 4-(1-(2-Amino-5-chloro-4-pyrimidinyl)-1′-methyl-1,2-dihydrospiro[indole-3,4′-piperidin]-6-yl)-2-(1,3-thiazol-2-yl)-3-butyn-2-ol] | < 1000 nM |
